These results are taken from ChEMBL document CHEMBL4414670 (J Nat Prod, 2019).

Assay [1] addresses T1, Tyrosine-protein phosphatase non-receptor type 11 (Homo sapiens) (UniProt Q06124).
T1 sequence (whole entry): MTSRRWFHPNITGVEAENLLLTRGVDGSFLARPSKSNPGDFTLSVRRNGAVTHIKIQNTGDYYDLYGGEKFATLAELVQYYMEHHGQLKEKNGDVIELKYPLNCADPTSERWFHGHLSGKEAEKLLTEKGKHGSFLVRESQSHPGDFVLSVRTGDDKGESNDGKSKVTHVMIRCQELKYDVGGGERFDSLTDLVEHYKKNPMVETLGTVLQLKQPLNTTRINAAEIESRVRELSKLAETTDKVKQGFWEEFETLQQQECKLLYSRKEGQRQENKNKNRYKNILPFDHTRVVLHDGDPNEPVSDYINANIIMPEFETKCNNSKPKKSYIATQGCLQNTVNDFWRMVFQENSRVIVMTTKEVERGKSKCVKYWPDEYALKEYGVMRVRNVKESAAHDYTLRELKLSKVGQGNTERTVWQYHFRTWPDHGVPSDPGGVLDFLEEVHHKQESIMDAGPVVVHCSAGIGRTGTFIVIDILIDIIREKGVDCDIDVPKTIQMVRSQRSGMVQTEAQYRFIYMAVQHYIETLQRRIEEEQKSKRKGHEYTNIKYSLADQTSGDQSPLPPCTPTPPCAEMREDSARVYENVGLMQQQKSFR
Put plainly: Inhibition of SHP2 (unknown origin) using DiFMUP as substrate at 100 uM incubated for 30 mins followed by substrate addition at pH 6.5 by standard phosphatase assay based fluorescence analysis.

For assay [2], the target named is T2, Tyrosine-protein phosphatase non-receptor type 7 (Homo sapiens) (UniProt P35236).
T2 sequence (whole entry): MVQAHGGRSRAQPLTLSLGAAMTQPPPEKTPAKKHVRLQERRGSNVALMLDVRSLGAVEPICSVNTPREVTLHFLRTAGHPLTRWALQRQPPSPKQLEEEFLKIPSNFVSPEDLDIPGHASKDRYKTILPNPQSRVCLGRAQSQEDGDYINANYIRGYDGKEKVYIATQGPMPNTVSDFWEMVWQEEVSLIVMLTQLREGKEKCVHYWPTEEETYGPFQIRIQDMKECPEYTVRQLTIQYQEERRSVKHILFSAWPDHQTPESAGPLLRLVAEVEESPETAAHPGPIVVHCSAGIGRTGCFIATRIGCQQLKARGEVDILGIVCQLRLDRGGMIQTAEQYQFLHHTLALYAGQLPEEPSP
Put plainly: Inhibition of HePTP (unknown origin) using DiFMUP as substrate at 100 uM incubated for 30 mins followed by substrate addition at pH 6.5 by standard phosphatase assay based fluorescence analysis.

For assay [3], the target named is T3, Receptor-type tyrosine-protein phosphatase mu (Homo sapiens, UniProt P28827). Nature of the assay: Inhibition of PTPmu (unknown origin) using DiFMUP as substrate at 100 uM incubated for 30 mins followed by substrate addition at pH 6.5 by standard phosphatase assay based fluorescence analysis.
The target of assay [4] is Receptor-type tyrosine-protein phosphatase F (Homo sapiens) (UniProt P10586). Nature of the assay: Inhibition of LAR (unknown origin) using DiFMUP as substrate at 100 uM incubated for 30 mins followed by substrate addition at pH 6.5 by standard phosphatase assay based fluorescence analysis.
Assay [5] concerns the target T4, Dual specificity protein phosphatase 3 (Homo sapiens, UniProt P51452). Nature of the assay: Inhibition of VHR (unknown origin) using DiFMUP as substrate at 100 uM incubated for 30 mins followed by substrate addition at pH 6.5 by standard phosphatase assay based fluorescence analysis.
Target sequence in this assay (P51452 whole entry, looked up): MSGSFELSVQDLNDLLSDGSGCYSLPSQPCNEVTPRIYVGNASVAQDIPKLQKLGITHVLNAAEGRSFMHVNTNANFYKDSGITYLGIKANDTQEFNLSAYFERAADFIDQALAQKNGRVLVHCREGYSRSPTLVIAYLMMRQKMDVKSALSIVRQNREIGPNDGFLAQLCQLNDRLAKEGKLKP
The target of assay [6] is Low molecular weight phosphotyrosine protein phosphatase (Homo sapiens) (UniProt P24666). Put plainly: Inhibition of LMWPTP (unknown origin) using DiFMUP as substrate at 100 uM incubated for 30 mins followed by substrate addition at pH 6.5 by standard phosphatase assay based fluorescence analysis.
Assay [7] addresses T5, Receptor-type tyrosine-protein phosphatase epsilon (Homo sapiens, UniProt P23469). Nature of the assay: Inhibition of PTPep (unknown origin) using DiFMUP as substrate at 100 uM incubated for 30 mins followed by substrate addition at pH 6.5 by standard phosphatase assay based fluorescence analysis.
In assay [8] the target is T6, Tyrosine-protein phosphatase non-receptor type 2 (Homo sapiens) (UniProt P17706).
T6 sequence (whole entry): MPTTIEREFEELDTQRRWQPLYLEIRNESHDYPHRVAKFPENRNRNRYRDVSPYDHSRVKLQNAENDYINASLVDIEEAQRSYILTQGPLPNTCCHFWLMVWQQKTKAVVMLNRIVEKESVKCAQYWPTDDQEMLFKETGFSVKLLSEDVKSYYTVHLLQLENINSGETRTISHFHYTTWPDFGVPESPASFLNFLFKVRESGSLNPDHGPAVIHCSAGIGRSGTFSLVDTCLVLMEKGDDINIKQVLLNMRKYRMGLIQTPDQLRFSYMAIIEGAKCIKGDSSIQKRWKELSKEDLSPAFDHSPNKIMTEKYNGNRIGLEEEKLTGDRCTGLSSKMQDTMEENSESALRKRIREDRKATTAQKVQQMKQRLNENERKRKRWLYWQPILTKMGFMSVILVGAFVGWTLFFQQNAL
Nature of the assay: Inhibition of TCPTP (unknown origin) using DiFMUP as substrate at 100 uM incubated for 30 mins followed by substrate addition at pH 6.5 by standard phosphatase assay based fluorescence analysis.

Assay [9] has as its target T7, Receptor-type tyrosine-protein phosphatase C (Homo sapiens) (UniProt P08575).
T7 sequence (whole entry): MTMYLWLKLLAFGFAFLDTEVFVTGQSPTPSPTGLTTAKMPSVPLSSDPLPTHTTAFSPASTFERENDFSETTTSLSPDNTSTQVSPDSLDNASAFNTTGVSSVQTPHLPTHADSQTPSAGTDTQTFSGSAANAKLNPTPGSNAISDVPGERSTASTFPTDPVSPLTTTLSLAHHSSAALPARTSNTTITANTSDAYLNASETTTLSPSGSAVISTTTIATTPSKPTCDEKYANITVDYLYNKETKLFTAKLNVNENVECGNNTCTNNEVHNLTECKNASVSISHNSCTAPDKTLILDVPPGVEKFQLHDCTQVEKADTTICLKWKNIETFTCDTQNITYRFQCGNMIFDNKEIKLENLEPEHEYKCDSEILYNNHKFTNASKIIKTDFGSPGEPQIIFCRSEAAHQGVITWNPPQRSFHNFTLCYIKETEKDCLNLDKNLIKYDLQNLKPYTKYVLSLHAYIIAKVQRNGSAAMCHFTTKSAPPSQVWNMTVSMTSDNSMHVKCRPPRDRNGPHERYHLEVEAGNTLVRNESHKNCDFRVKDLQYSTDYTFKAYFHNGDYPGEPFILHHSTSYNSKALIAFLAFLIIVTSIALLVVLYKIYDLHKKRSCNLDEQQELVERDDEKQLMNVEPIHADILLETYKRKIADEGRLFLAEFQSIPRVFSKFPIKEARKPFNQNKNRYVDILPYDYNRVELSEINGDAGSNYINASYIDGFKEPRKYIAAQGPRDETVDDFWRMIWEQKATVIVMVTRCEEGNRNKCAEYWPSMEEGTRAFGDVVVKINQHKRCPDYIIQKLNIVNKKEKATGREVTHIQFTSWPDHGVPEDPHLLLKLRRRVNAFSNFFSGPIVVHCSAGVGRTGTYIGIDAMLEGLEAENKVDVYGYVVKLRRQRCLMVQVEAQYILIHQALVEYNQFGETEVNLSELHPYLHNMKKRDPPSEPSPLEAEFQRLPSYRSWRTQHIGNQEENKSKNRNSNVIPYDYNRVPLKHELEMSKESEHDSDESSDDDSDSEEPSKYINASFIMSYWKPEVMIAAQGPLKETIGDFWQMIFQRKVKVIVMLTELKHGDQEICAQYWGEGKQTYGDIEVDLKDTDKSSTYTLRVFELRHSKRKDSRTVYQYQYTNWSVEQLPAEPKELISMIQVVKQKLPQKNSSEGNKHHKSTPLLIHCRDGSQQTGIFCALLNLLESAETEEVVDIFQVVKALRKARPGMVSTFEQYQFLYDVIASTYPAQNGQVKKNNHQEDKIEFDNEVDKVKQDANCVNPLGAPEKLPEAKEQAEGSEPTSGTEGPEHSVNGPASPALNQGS
Put plainly: Inhibition of CD45 (unknown origin) using DiFMUP as substrate at 100 uM incubated for 30 mins followed by substrate addition at pH 6.5 by standard phosphatase assay based fluorescence analysis.

Assay [10] addresses T8, Tyrosine-protein phosphatase non-receptor type 7 (Homo sapiens, UniProt P35236).
T8 sequence (P35236 whole entry): T2 sequence (whole entry)
Nature of the assay: Inhibition of HePTP (unknown origin) using DiFMUP as substrate incubated for 30 mins followed by substrate addition at pH 6.5 by standard phosphatase assay based fluorescence analysis.

Assay [11] concerns the target T9, Tyrosine-protein phosphatase non-receptor type 11 (Homo sapiens, UniProt Q06124).
T9 sequence (Q06124 whole entry): T1 sequence (whole entry)
Nature of the assay: Inhibition of SHP2 (unknown origin) using DiFMUP as substrate incubated for 30 mins followed by substrate addition at pH 6.5 by standard phosphatase assay based fluorescence analysis.

Assay [12] deals with T10, Tyrosine-protein phosphatase non-receptor type 2 (Homo sapiens, UniProt P17706).
T10 sequence (P17706 whole entry): T6 sequence (whole entry)
Nature of the assay: Inhibition of TCPTP (unknown origin) using DiFMUP as substrate incubated for 30 mins followed by substrate addition at pH 6.5 by standard phosphatase assay based fluorescence analysis.

Assay [13] deals with T4, Dual specificity protein phosphatase 3. Nature of the assay: Inhibition of VHR (unknown origin) using DiFMUP as substrate incubated for 30 mins followed by substrate addition at pH 6.5 by standard phosphatase assay based fluorescence analysis.
Target sequence in this assay (P51452 whole entry): as the sequence (P51452 whole entry, looked up) above
Assay [14] addresses Receptor-type tyrosine-protein phosphatase F (Homo sapiens) (UniProt P10586). Put plainly: Time-dependent inhibition of LAR (unknown origin) using DiFMUP as substrate at 50 uM incubated for 15 to 120 mins followed by substrate addition at pH 6.5 by standard phosphatase assay based fluorescence analysis. Conditions: TDE = time-dependent effect.
In assay [15] the target is T5, Receptor-type tyrosine-protein phosphatase epsilon. Nature of the assay: Inhibition of PTPep (unknown origin) using DiFMUP as substrate incubated for 30 mins followed by substrate addition at pH 6.5 by standard phosphatase assay based fluorescence analysis.
Assay [16] addresses T11, Receptor-type tyrosine-protein phosphatase C (Homo sapiens, UniProt P08575).
T11 sequence (P08575 whole entry): T7 sequence (whole entry)
Nature of the assay: Inhibition of CD45 (unknown origin) using DiFMUP as substrate incubated for 30 mins followed by substrate addition at pH 6.5 by standard phosphatase assay based fluorescence analysis.

Assay [17] has as its target T3, Receptor-type tyrosine-protein phosphatase mu. Nature of the assay: Inhibition of PTPmu (unknown origin) using DiFMUP as substrate incubated for 30 mins followed by substrate addition at pH 6.5 by standard phosphatase assay based fluorescence analysis.
The target in assay [18] is Receptor-type tyrosine-protein phosphatase F (Homo sapiens) (UniProt P10586). Put plainly: Inhibition of LAR (unknown origin) using DiFMUP as substrate incubated for 30 mins followed by substrate addition at pH 6.5 by standard phosphatase assay based fluorescence analysis.
The target is the same in assay [19]. Nature of the assay: Inhibition of LAR (unknown origin) assessed as time required for half of the protein to be covalently modified using DiFMUP as substrate incubated for 15 to 120 mins followed by substrate addition at pH 6.5 by standard phosphatase assay based fluorescence analysis.
Assay [20] concerns the target T3, Receptor-type tyrosine-protein phosphatase mu. Nature of the assay: Time-dependent inhibition of PTPmu (unknown origin) using DiFMUP as substrate at 10 uM incubated for 5 to 120 mins followed by substrate addition at pH 6.5 by standard phosphatase assay based fluorescence analysis. Conditions: TDE = time-dependent effect.
Assay [21] has as its target Receptor-type tyrosine-protein phosphatase F (Homo sapiens) (UniProt P10586). Nature of the assay: Time-dependent inhibition of LAR (unknown origin) using DiFMUP as substrate at 1 uM incubated for 15 to 120 mins followed by substrate addition at pH 6.5 by standard phosphatase assay based fluorescence analysis. Conditions: TDE = time-dependent effect.
Assay [22] has as its target T7, Receptor-type tyrosine-protein phosphatase C (Homo sapiens). Put plainly: Time dependent inhibition of CD45 (unknown origin) using DiFMUP as substrate at 10 uM incubated for 5 to 120 mins followed by substrate addition at pH 6.5 by standard phosphatase assay based fluorescence analysis. The conditions noted are these: TDE = time-dependent effect.

Calls of active or inactive are those of the source. The calls are words filed in the database; no cut-off is given here.

As a reminder, the IC50 is the concentration needed to halve the response being measured. Read a low IC50 as higher potency.

Sequence of Receptor-type tyrosine-protein phosphatase F (Homo sapiens) (P10586 whole entry): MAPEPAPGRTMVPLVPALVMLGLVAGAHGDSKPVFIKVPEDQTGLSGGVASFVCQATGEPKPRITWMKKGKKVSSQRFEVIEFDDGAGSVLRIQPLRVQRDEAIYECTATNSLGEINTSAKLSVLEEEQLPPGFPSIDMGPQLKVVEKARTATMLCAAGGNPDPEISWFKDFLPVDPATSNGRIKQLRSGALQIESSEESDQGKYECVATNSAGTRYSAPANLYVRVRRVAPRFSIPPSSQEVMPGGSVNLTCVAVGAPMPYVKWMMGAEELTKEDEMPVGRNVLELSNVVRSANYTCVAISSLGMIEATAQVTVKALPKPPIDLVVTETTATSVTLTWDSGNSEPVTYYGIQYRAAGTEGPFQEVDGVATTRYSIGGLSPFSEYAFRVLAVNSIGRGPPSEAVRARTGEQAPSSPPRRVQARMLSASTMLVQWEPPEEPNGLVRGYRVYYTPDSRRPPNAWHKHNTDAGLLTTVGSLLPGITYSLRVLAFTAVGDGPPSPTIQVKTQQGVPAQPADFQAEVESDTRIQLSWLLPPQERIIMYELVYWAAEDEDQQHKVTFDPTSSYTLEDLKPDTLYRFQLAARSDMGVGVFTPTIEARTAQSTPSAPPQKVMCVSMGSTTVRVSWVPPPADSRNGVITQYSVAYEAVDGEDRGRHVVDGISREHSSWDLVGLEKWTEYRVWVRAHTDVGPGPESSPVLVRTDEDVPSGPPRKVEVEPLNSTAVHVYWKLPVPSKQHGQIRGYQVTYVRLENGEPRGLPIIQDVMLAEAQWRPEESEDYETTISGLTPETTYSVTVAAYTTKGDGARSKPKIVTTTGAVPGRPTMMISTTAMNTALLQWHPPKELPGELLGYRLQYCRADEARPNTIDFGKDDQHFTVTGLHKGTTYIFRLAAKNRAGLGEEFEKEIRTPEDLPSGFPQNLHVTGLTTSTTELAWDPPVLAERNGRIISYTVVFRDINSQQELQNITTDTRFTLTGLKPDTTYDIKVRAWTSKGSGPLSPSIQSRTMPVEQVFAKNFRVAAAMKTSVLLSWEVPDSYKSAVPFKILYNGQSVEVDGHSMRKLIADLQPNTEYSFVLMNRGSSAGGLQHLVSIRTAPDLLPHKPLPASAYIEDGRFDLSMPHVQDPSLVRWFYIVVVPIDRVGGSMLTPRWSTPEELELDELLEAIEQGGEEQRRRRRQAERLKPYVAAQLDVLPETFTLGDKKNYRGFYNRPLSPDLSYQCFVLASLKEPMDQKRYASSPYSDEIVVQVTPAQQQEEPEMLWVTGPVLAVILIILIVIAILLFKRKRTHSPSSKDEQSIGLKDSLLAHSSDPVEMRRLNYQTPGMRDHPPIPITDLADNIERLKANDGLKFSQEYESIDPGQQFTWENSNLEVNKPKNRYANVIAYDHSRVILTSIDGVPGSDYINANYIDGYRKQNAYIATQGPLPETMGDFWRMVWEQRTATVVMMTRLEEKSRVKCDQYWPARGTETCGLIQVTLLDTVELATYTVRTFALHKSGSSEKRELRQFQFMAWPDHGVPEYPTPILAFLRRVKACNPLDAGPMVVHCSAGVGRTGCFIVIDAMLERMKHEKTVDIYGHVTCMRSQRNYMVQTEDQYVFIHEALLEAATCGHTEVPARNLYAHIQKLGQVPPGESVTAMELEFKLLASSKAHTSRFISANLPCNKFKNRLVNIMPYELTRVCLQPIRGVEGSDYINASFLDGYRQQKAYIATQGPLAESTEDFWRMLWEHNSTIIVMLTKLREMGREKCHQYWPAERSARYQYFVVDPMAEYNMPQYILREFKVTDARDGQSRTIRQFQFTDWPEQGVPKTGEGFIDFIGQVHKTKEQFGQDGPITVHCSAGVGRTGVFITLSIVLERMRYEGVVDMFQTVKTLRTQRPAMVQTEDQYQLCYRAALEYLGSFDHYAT
T5 sequence (P23469 whole entry): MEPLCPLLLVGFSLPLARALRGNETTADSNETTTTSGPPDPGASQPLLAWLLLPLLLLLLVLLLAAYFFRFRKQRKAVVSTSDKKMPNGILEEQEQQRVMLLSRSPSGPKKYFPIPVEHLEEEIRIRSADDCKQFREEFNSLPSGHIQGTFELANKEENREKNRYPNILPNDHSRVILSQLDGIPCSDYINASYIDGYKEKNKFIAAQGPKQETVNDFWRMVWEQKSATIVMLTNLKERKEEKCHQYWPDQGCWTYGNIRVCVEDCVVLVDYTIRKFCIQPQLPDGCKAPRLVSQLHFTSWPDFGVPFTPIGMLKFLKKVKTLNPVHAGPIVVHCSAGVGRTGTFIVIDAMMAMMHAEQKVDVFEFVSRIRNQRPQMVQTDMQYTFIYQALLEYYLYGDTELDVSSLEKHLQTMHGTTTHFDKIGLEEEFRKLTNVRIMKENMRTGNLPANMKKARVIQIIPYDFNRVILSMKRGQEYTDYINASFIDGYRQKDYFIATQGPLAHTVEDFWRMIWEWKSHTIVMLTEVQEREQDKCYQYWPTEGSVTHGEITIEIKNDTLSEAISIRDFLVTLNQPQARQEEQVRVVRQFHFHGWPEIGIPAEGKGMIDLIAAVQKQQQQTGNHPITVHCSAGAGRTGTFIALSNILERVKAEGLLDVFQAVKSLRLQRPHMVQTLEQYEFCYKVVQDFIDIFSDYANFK
Sequence of Low molecular weight phosphotyrosine protein phosphatase (Homo sapiens) (P24666 whole entry, looked up): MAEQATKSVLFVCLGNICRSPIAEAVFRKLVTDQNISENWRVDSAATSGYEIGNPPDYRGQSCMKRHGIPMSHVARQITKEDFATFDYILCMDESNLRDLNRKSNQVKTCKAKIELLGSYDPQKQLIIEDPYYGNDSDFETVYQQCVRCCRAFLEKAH
T3 sequence (P28827 whole entry): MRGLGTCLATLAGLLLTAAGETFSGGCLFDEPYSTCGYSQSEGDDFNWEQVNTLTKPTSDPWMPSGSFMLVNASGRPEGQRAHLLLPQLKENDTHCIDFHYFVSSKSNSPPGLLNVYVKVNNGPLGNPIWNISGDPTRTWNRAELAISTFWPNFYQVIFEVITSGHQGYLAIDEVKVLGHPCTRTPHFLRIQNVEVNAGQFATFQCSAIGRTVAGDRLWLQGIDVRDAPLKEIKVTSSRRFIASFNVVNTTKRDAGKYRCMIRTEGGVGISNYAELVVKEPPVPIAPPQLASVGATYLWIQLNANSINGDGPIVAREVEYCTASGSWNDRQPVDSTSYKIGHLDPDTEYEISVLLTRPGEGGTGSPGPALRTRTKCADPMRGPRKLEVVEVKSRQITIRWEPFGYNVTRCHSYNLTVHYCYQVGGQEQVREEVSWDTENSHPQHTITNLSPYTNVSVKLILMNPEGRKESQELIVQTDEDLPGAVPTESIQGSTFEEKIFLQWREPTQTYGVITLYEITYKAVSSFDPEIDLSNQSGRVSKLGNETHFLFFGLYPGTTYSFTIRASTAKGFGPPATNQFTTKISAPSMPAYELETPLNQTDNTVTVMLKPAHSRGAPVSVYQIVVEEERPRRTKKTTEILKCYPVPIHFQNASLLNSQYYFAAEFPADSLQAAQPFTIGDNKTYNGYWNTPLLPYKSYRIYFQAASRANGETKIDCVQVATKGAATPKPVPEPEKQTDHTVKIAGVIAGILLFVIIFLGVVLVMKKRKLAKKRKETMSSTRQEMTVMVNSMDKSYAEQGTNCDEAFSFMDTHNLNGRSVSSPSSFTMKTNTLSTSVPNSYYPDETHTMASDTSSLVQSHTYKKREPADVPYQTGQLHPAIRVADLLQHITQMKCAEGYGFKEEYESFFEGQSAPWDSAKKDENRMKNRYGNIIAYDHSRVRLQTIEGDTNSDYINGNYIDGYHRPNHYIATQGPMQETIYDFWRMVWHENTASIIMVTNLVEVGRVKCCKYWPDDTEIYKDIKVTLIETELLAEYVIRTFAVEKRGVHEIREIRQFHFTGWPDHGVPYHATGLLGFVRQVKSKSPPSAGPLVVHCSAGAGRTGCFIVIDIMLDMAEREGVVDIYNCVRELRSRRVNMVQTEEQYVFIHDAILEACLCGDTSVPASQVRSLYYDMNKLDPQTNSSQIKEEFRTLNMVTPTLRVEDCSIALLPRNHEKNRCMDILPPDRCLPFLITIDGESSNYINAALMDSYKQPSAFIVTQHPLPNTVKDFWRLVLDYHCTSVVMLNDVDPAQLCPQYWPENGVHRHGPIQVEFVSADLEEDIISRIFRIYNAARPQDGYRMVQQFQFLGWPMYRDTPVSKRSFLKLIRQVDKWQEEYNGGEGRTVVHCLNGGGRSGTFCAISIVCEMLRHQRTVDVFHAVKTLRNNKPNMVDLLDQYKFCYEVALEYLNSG

For the compound `COc1ccc2c(c1C=O)CC(O)OC2=O` (configuration not stated), the inhibition result in assay [1], in assay [2], in assay [3], in assay [4], in assay [5] and in assay [6] was “inactive” each time. Moreover, the inhibition result in [7], in assay [8] and in [9] was “inactive” throughout.
With `COc1c(C=O)c2c(c3c1CC(C)(C)C3)C(=O)OC(O)C2` (configuration not stated), the IC50 in assay [10], in assay [11], in [12], in assay [13], in [15] and in assay [16] was above 100 µM each time. This compound registered an IC50 in [17] above 100 µM. Moreover, the inhibition result in [1], in assay [2], in [3], in assay [5], in [6] and in [7] was “inactive” throughout. Moreover, the inhibition result in [8] and in assay [9] was “inactive” each time. In addition, the inhibition result in assay [4] was “Active”. The inhibition entry in assay [14] is “Tde”.
Regarding `CC1(C)Cc2c(O)c(C=O)c3c(c2C1)C(=O)OC(O)C3` (configuration not stated) [ILLUDALIC ACID], the inhibition entry in assay [18] is “Dose-dependent effect”; in assay [20], “Tde”; in assay [21], “Tde”; in [22], “Tde”. Moreover, the 50% inhibitory concentration (IC50) in [10] was above 100 µM; in [11] it was 29 µM; in [12], above 100 µM; in [13] it was above 100 µM; in assay [15], above 100 µM; in [16], 10 µM. In assay [17], this compound had a half-maximal inhibitory concentration (IC50) of 16 µM. Besides, the inhibition result in assay [1], in [3], in [4] and in assay [9] was “Active” each time. The inhibition entry in [2], in assay [5], in assay [6], in assay [7] and in assay [8] was “inactive” in each case. Further, in [19], the T1/2 was 30 s.
